According to the CATMoS acute toxicity set (Mansouri et al. 2021):

Experiment: GHS categories as the set defines them, by LD50: 1 up to 5, 2 up to 50, 3 up to 300, 4 up to 2000, 5 above 2000 mg/kg
Conditions: rat; in vivo; po

| Compound | GHS category |
| --- | --- |
| CCCc1nc2ncnn2c(N(CC)CC)c1Cc1ccc(-c2ccccc2-c2nn[nH]n2)cc1 | 4 |
| CC(=O)N(CC(O)CO)c1c(I)c(C(=O)NCC(O)CO)c(I)c(C(=O)NCC(O)CO)c1I (configuration not stated) | 5 |
| CN(Cc1ccc(C(C)(C)C)cc1)Cc1cccc2ccccc12 | 5 |
| C[C@@H](O)[C@H]1C(=O)N2C(C(=O)O)=C(S[C@@H]3CN[C@H](C(=O)N(C)C)C3)[C@H](C)[C@H]12 | 5 |
| CNC(=O)c1sc(-c2ccccc2OC)nc1C | 5 |
| CCCC(=O)c1ccc2c(c1)OC(C)C(=O)N2C (configuration not stated) | 5 |
| COc1ccc(C2(c3ccc(OC)c(Cl)c3)NC(=O)NC2=O)cc1 (configuration not stated) | 5 |
| Cn1nnnc1SCC1=C(C(=O)O)N2C(=O)[C@@H](NC(=O)[C@H](O)c3ccccc3)[C@H]2SC1 | 5 |
| O=c1cc[nH]c(=O)[nH]1 | 5 |
| CC=CC=CCOC(=O)CCC | 5 |
| Cc1cc(C(C)(C)C)c(OP2COC3(COP(Oc4c(C(C)(C)C)cc(C)cc4C(C)(C)C)OC3)OC2)c(C(C)(C)C)c1 (configuration not stated) | 5 |
| COC12C[C@@H](CO)CN(C)[C@@H]1Cc1cn(C(C)(C)C)c3cccc2c13 (some centres not stated) | 4 |
| O=C1NC(=O)C(c2ccc(O)cc2)(c2cccs2)N1 (configuration not stated) | 5 |
| CC(C)=CCN(CC=C(C)C)CCC(C)(C#N)c1cccc2ccccc12 (configuration not stated) | 4 |
| O=C1CCc2c(OCC(O)CN3CCC(Cc4ccccc4)CC3)ccc(Br)c2N1 (configuration not stated) | 4 |
| CC[C@H]1C[C@@H]2CC[C@@H](O2)[C@@H](C)C(=O)O[C@H](CC)C[C@H]2CC[C@H](O2)[C@H](C)C(=O)O[C@@H](CC)C[C@@H]2CC[C@@H](O2)[C@@H](C)C(=O)O[C@H](CC)C[C@H]2CC[C@H](O2)[C@H](C)C(=O)O1 | 5 |
| CCCc1c(Cc2ccc(-c3sccc3-c3nn[nH]n3)cc2)c(=O)nc2nc(C)[nH]n12 | 4 |
| CC1(C)S[C@@H]2[C@H](NC(=O)COc3ccccc3)C(=O)N2[C@H]1C(=O)O | 4 |
| CCC(CC)Nc1nnc(-c2ccccc2)c2ccccc12 | 5 |
| CCC1(CC)C(=O)N2Cc3ccccc3CN2C1=O | 5 |
| CCCCCCCCCCCCCCCCCC | 5 |
| Nc1nc(C2CC2)nc(C(=O)O)c1Cl | 5 |
| CCOC(=O)c1cn(C2CC2)c2cc(F)c(F)cc2c1=O | 5 |

| Compound | GHS category |
| --- | --- |
| CCCC1OC(Cn2cncn2)(c2cc3ccccc3o2)OCC1(C)C (configuration not stated) | 4 |
| CCCCCCCC[N+](C)(C)[O-] | 5 |
| CCC(=O)O[C@@H]1C=C2CCC3C(CCC4(C)C3CC[C@@H]4OC(=O)CC)C2CC1 (some centres not stated) | 5 |
| CC(=O)C=CC=C(C)CCC=C(C)C | 5 |
| O=c1nc(-c2cccnc2)[nH]c2ncccc12 | 4 |
| N#Cc1ccc(C#N)cc1 | 5 |
| CCC(=O)OCC(=O)[C@@]1(OC(=O)CC)[C@@H](C)C[C@H]2[C@@H]3CCC4=CC(=O)C=C[C@]4(C)[C@@]3(Cl)[C@@H](O)C[C@@]21C | 5 |
| CC1=CC[C@H](CC=O)C1(C)C | 5 |
| OCCCOc1nn(-c2cccc(C(F)(F)F)c2)c2ncccc12 | 4 |
| CC1CC(C)C(C)C(C)C1 (configuration not stated) | 5 |
| N[C@@H](CC(=O)O)C(=O)O | 5 |
| Nc1c(OCCOC(=O)Oc2ccccc2)cc(O)c2c1C(=O)c1ccccc1C2=O | 5 |
| Cc1ccc(C2CC(=O)C(C(=O)CCc3ccc4c(c3)OCO4)C(=O)C2)cc1 (configuration not stated) | 5 |
| COC(OC)N(C)C | 5 |
| COC(=O)c1c(C(F)F)nc(C(F)(F)F)c(C2=NCCS2)c1CC(C)C | 5 |
| Fc1c(F)c(F)c(Cl)c(F)c1F | 5 |
| NC(=O)c1ccc[n+]([C@@H]2O[C@H](COP(=O)([O-])OP(=O)(O)OC[C@H]3O[C@@H](n4cnc5c(N)ncnc54)[C@H](O)[C@@H]3O)[C@@H](O)[C@H]2O)c1 | 5 |
| NC(=O)c1ccc(NC(=O)c2ccc(N)cc2)cc1 | 5 |
| CS/C(=N\O)C(=O)N(C)C | 5 |
| O=C(O)c1nc(C(Cl)(Cl)Cl)n(-c2ccc(Cl)cc2Cl)n1 | 5 |
| C1C[C@@H]2[C@H]3CC[C@H](C3)[C@@H]2C1 | 5 |
| CC(C)c1c(C(=O)Nc2ccccc2)c(-c2ccccc2)c(-c2ccc(F)cc2)n1CC[C@@H]1C[C@H](CC(=O)OC(C)(C)C)OC(C)(C)O1 | 5 |
| C1=CCC(c2ccccc2)CC1 (configuration not stated) | 5 |

| Compound | GHS category |
| --- | --- |
| CCCCCCOC(=O)C(C)C | 5 |
| O=P(O)(O)CN(CP(=O)(O)O)CP(=O)(O)O | 5 |
| CCOc1nc(NC)nc(NC(=O)NS(=O)(=O)c2ccccc2C(=O)OC)n1 | 5 |
| COC(=O)c1ccccc1S(=O)(=O)NC(=O)Nc1nc(OC(F)F)cc(OC(F)F)n1 | 5 |
| O=C1c2ccccc2C(=O)N1CC1=Nc2ccccc2Cc2ccccc21 | 5 |
| CCC(COC(=O)c1cc(OC)c(OC)c(OC)c1)(c1ccccc1)N(C)C (configuration not stated) | 5 |
| C/C=C(\C)C(=O)O | 5 |
| C/C=C(\C)C(=O)O[C@H]1C[C@@H](OC(C)=O)[C@@]2(C(=O)OC)CO[C@H]3[C@@H](O)[C@@](C)([C@]45O[C@@]4(C)[C@H]4C[C@@H]5O[C@@H]5OC=C[C@@]54O)[C@H]4[C@]1(CO[C@]4(O)C(=O)OC)[C@@H]32 | 5 |
| Cc1cccn2c(=O)c(C(=O)NC3CCCC3)cnc12 | 3 |
| CCC(=O)O[C@]1(C(=O)SCF)[C@H](C)C[C@H]2C3C[C@H](F)C4=CC(=O)C=C[C@]4(C)[C@@]3(F)[C@@H](O)C[C@@]21C (some centres not stated) | 5 |
| Nc1nc2cc(Cl)cc(S(=O)(=O)O)c2o1 | 4 |
| CCC1COC(Cn2cncn2)(c2cc3cc(Cl)cc(Cl)c3o2)O1 (configuration not stated) | 4 |
| O=C(CCc1ccc2c(c1)OCO2)C1C(=O)CC(c2ccccc2)CC1=O (configuration not stated) | 5 |
| CCC(C)(O)CCCC(C)C (configuration not stated) | 5 |
| CCCCCCBr | 5 |
| CN1OCC(=Cc2cc(C(C)(C)C)c(O)c(C(C)(C)C)c2)C1=O | 4 |
| CCCCC(CC)COC(=O)c1ccc(C(=O)OCC(CC)CCCC)c(C(=O)OCC(CC)CCCC)c1 (configuration not stated) | 5 |
| CCCCCCCC/C=C\CCCCCCCC(=O)OCC | 5 |
| CC(C)c1nc2ccccc2c(=O)n1-c1ccncc1 | 4 |
| CCCCCCCCCC(C)C=O (configuration not stated) | 5 |
| CC(C)(C)NC(=O)[C@@H]1CN(Cc2cccnc2)CCN1C[C@@H](O)C[C@@H](Cc1ccccc1)C(=O)N[C@H]1c2ccccc2C[C@H]1O | 5 |
| CCC1(C)COC(Cn2cncn2)(c2cc3ccccc3o2)OC1 (configuration not stated) | 4 |
| CCC1OC(=O)C(C)C(OC2CC(C)(OC)C(O)C(C)O2)C(C)C(OC2OC(C)CC(N(C)C)C2O)C(C)(O)CC(C)C(=O)C(C)C(O)C1(C)O (configuration not stated) | 5 |

| Compound | GHS category |
| --- | --- |
| CC(C=O)C(=O)c1ccc(C2CCCCC2)cc1 (configuration not stated) | 4 |
| Cc1c(Cl)ccc(O)c1Cl | 5 |
| CCCCCCCCCC(=O)OCC(CC)(COC(=O)CCCCCCC)COC(=O)CCCCCCC | 5 |
| CCOC(=O)CC#N | 5 |
| CC1(C)S[C@@H]2[C@H](NC(=O)C(C(=O)O)c3ccccc3)C(=O)N2[C@H]1C(=O)O (some centres not stated) | 5 |
| O=C(O)CCCCCNc1nc(NCCCCCC(=O)O)nc(NCCCCCC(=O)O)n1 | 5 |
| OC[C@H]1CO[C@@](Cn2cncn2)(c2cc3ccccc3o2)O1 | 4 |
| O=C1CCc2cc(OCCCCc3nnnn3C3CCCCC3)ccc2N1 | 5 |
| CCCCCC(=O)OCCC(C)C | 5 |
| COc1c(C)c(O)c(C)c(C)c1C(=O)Oc1c(C)c(C)c(C(=O)Oc2c(C)c(C)c(C(=O)O)c(OC)c2C)c(O)c1C | 4 |
| CCCCCCCOc1ccc(-c2ccc(C#N)cc2)cc1 | 5 |
| COc1ccc(COC(=O)Cc2ccccc2)cc1 | 5 |
| CCCC(=O)OCCC(C)C | 5 |
| CC(=O)OCC1=C(C(=O)O)N2C(=O)[C@@H](NC(=O)[C@H](N)c3ccccc3)[C@H]2SC1 | 5 |
| CC1C(C)(C)C2CCc3cncnc3C2C1(C)C (configuration not stated) | 4 |
| OC(c1ccccc1)c1cccnc1Cl (configuration not stated) | 5 |
| CCCCCCCCCCCCCCCCCNP1(=S)OCc2cc([N+](=O)[O-])ccc2O1 (configuration not stated) | 3 |
| CCCC(=O)O[C@]1(C(=O)COC(C)=O)CC[C@H]2[C@@H]3C[C@H](F)C4=CC(=O)C=C[C@]4(C)[C@@]3(F)[C@@H](O)C[C@@]21C | 5 |
| CCC(=O)OCC(=O)OC(C)C1CCCC(C)(C)C1 (configuration not stated) | 5 |
| O=C(O)CCCCCCCCCCCC(=O)O | 5 |
| CC(c1ccc(O)cc1)(c1ccc(O)cc1)c1ccc(O)cc1 | 5 |
| Cc1ccc(C2=NCOCS2)cc1 | 4 |
| CC(C)c1ccc(S(=O)(=O)O)cc1 | 5 |

| Compound | GHS category |
| --- | --- |
| NC(=O)Oc1ccccc1C(=O)Oc1ccccc1[N+](=O)[O-] | 5 |
| C/C=C(\C)C(=O)OCC/C=C\CC | 5 |
| COP(=S)(OC)Oc1ccc(Cl)cc1C#N | 4 |
| O=C1c2ccc(Oc3ccc(Cl)cc3)cc2C(=O)N1Cc1cccnc1 | 5 |
| COC(=O)c1ccc(C(=O)O)cc1[N+](=O)[O-] | 5 |
| C=CC(=O)O[Si](C(C)C)(C(C)C)C(C)C | 5 |
| CC(c1ccccc1)c1ccc(Nc2ccc(C(C)c3ccccc3)cc2)cc1 (configuration not stated) | 5 |
| O=S(=O)(NCl)c1ccccc1 | 4 |
| O=NNC1=NCCN1Cc1ccc(Cl)nc1 | 5 |
| CC(=O)NCc1c(I)c(NC(C)=O)c(I)c(C(=O)O)c1I | 5 |
| CC1CCCCC1 | 5 |
| CC1CCC(C(C)C)C(OCC(O)CO)C1 (configuration not stated) | 5 |
| C=C[Si](C)(C)Cl | 3 |
| Cc1ccc2c(c1)c(-c1ccccc1)nn2CCCN(C)C | 4 |
| CC(C)OC(=O)CCCCCCCCC(=O)OC(C)C | 5 |
| CC1CC(OC(=O)C(Oc2ccc(Cl)cc2)C(C)C)CC(C)(C)C1 (configuration not stated) | 5 |
| CCC(=O)CCC1C(C)=CCCC1(C)C (configuration not stated) | 5 |
| O=C1c2c(Br)c(Br)c(Br)c(Br)c2C(=O)N1CCN1C(=O)c2c(Br)c(Br)c(Br)c(Br)c2C1=O | 5 |
| CCCCCCCCC=CCCCCCCCC(=O)OC(C)C | 5 |
| FC(F)CCl | 5 |
